Experimental data: patent US8097733B2, “Pyrazole derivatives as 5-LO-inhibitors” (Pfizer Inc., priority 2007, dated 2012)

Columns and labels:
recombinant human 5-LOX = molecular target: T1, recombinant human 5-LOX (Homo sapiens, UniProt P09917); test: Fluorescence Intensity 5-LOX Enzyme Assay; type: biochemical; conditions: crude lysate of recombinant human 5-LOX; highest inhibitor concentration tested typically 25 μM
T1 sequence (P09917 1-674): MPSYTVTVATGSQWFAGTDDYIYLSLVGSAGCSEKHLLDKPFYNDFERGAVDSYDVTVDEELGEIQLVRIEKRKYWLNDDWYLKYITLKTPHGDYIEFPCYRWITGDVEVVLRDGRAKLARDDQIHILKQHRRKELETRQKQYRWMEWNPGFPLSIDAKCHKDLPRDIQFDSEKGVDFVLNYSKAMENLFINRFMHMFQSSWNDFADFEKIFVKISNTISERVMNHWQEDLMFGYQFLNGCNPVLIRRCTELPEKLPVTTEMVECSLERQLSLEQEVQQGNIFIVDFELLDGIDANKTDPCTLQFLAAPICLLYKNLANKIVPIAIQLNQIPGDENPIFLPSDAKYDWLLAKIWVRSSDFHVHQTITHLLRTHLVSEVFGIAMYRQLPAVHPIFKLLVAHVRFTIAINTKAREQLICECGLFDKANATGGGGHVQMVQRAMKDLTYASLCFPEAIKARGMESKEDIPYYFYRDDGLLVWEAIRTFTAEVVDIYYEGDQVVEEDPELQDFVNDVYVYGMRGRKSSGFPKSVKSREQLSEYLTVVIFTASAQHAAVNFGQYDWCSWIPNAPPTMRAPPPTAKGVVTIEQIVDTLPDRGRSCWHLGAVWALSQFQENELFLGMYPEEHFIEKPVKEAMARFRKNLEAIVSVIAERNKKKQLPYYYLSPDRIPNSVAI
Excerpt: Bio Data Assays for Allergic and Non Allergic Airways Diseases Fluorescence Intensity 5-LOX Enzyme Assay
The enzyme assay is based on the oxidation of the non-fluorescent compound 2′7′-dichlorodihydrofluorescein diacetate (H2DCFDA) to the fluorescent 2′,7′-dichlorofluorescein by 5-LOX in an arachidonic acid-dependent reaction. Ester cleavage of the acetate groups of the substrate H2DCFDA must occur prior to oxidation. This is achieved through use of a crude cell lysate preparation of recombinant human 5-LOX. The enzyme assay ([…]) contained 50 mM Tris (pH 7.5), 2 mM CaCl2, 2 mM EDTA, 3 μM arachidonic acid (Nu-Chek Prep; #S-1133), 10 μM ATP, 10 μM H2DCFDA (Invitrogen; #D399), inhibitor (varying concentration) and recombinant human 5-LOX enzyme (1.25 μL crude lysate per well).
Inhibitors (dissolved in DMSO) were plated into a 384-well assay plate (Corning #3654) at 1 μL followed by a 20 μL addition of a solution containing 5-LO enzyme and H2DCFDA. Enzyme and H2DCFDA were pre-incubated for 5 min to allow time for acetate group cleavage of the dye prior to addition to the assay plate. After a 10 min pre-incubation of inhibitor and enzyme/dye mix, the assay was initiated by the addition of a substrate solution containing arachidonic acid and ATP. The enzymatic reaction was run for 20 min at room temperature and terminated by the addition of 40 μL of acetonitrile. Assay plates were read in a plate reader using standard wavelengths for fluorescein. IC50s of inhibitors were calculated using a 4-parameter fit using 7 inhibitor concentrations in duplicate with 3-fold serial dilutions. Controls on each plate included no inhibitor (zero percent effect) and 25 μM C J-13610 (one hundred percent effect). The highest inhibitor concentration tested was typically 25 μM. The final DMSO concentration in the assay was 2.5%.

[1] = test system: human whole blood (leukotriene and prostaglandin levels); test: Eicosanoid production from human whole blood; type: cell-based; conditions: human whole blood stimulated with calcium ionophore A23187 and arachidonic acid; ELISA
Experimental: Human whole blood is collected in 10 ml heparin tubes (Vacutainer, Becton Dickenson). Collected blood is pooled and 80 μL is dispensed into each well of 384 well polypropylene plates. A PlateMate is used to add 2 μL of compound solution in DMSO to the 80 μL of blood in the polypropylene plates. The plate, with blood and compound added, is incubated at room temperature for 10 minutes. 2 μL of a calcimycin (800 ng/ml) (A23187 C-7522, Sigma) and arachidonic acid (30 μM) (NU-Chek PREP, INC. S-1133) solution in 60% ethanol is then added to the blood using a Micromultidrop. The plates are then incubated at 37° C. in a shallow water bath for 15 minutes. Plates are then spun at 800 g for 10 minutes at 4° C. Supernatant is removed and assayed by Elisa (Caymen Chemical).
Eicosanoid Production from Human Whole Blood:
Human whole blood was collected from healthy or asthmatic human donors in 10 ml heparinized tubes (Vacutainer tubes; Becton Dickenson, Franklin Lakes, N.J.). Collected blood was pooled and 80 μL was dispensed into each well of 384 well polypropylene plates using a Multi-prop™ 384-well dispenser (Titertek, Huntsville, Ala.). Varying concentrations of compounds were dissolved in DMSO then 2 μL/well was added to the blood using a PlateMate Plus™ automated pipetting station (Matrix Technologies, Hudson, N.H.). The compounds were preincubated with the blood at room temperature for 10 minutes followed by stimulation with 40 μM calcium ionophore (A23187, Sigma Chemical Co, St. Louis, Mo., Cat. # C-7522) and 30 μM arachidonic acid (S-1133, NU-Chek PREP, Inc., Elysian, MN, Cat. # S-1133) dissolved in 60% ethanol. After 15 min incubation at 37° C. in a shallow water bath, the blood was centrifuged at 8009 for 10 minutes at 4° C., the supernatants collected, and leukotriene and prostaglandin levels measured by ELISA according to the manufacturer's directions (Cayman Chemical Company, Ann Arbor, Mich.). The assay was performed at a final concentration of 2.5% DMSO.

[2] = test system: eicosanoid production in the rat air pouch; test: Carrageenan-induced eicosanoid production in the rat air pouch; type: in vivo; conditions: po, male Lewis rats, 3 mpk by gavage 1 hour prior to carrageenan
Experimental: Carrageenan-Induced Eicosanoid Production in the Rat Air Pouch:
Male Lewis rats (175-200 g), Charles River Laboratories, Wilmington, Mass.) were used in the study. Air pouches were produced by subcutaneous injection of 20 ml of sterile air into the intrascapular area of the back. Pouches were allowed to develop for 1 day. Animals (6 per group) were fasted with free access to water for 16 to 24 hours prior to drug administration. Drugs or vehicle were administered by gavage 1 hour prior to injection of 2 ml of a 1% suspension of carrageenan (FMC BioPolymer, Philadelphia, Pa., Cat. # GP209-NF) dissolved in saline into the pouch. At 3 hours post-carrageenan injection, 1 ml of 50 μg/ml calcium ionophore in saline (A23187, Sigma Chemical Co, St. Louis, M, Cat. #C-7522) was injected into the pouch and the pouch fluid collected 10 minutes later by lavage. The fluid was centrifuged at 3500 rpm for 10 minutes at 4° C., and the supernatants were collected for analysis. Leukotriene and prostaglandin levels were quantitated by ELISA according to the manufacturer's directions (Cayman Chemical Company, Ann Arbor, Mi).

| Structure (SMILES) | IC50 (recombinant human 5-LOX) [nM] | IC50 [1] [nM] | inhibition at 3 mg/kg [2] [%] |
| --- | --- | --- | --- |
| C[C@H]1C[C@@](C(N)=O)(c2ccc(F)c(Sc3ccc(-c4ccnn4C)cc3)c2F)CCO1 [Example 28, (2S,4R)-4-(2,4-difluoro-3-(4-(1-methyl-1H-pyrazol-5-yl)phenylthio)phenyl)-2-methyl-tetrahydro-2H-pyran-4-carboxamide] | 21 | 227 | 100 |
| CNC(=O)C1(c2cc(F)cc(Sc3ccc(-c4ccnn4C)cc3)c2)CCOCC1 [Example 18, 4-(3-fluoro-5-{[4-(1-methyl-1H-pyrazol-5-yl)phenyl]thio}-phenyl)-N-methyltetrahydro-2H-pyran-4-carboxamide] | 369 | 596 | – |
| Cn1nccc1-c1ccc(Sc2cccc(C3(C#N)CCOCC3)c2F)c(F)c1 [Example 45, 4-(2-fluoro-3-(2-fluoro-4-(1-methyl-1H-pyrazol-5-yl)phenylthio)phenyl)tetrahydro-2H-pyran-4-carbonitrile] | 84 | 33 | – |
| Cn1nccc1C(=O)c1cc(F)c(Sc2cccc(C3(C(N)=O)CCOCC3)c2)cc1F [Example 63, 4-[3-({2,5-difluoro-4-[(1-methyl-1H-pyrazol-5-yl)carbonyl]phenyl}thio)phenyl]tetrahydro-2H-pyran-4-carboxamide] | 256 | 1260 | – |
| C[C@H]1C[C@@](C#N)(c2cccc([S+]([O-])c3ccc(-c4ccnn4C)cc3)c2F)CCO1 (stereo partly drawn) [Example 54, (2S,4R)-4-(2-fluoro-3-(4-(1-methyl-1H-pyrazol-5-yl)phenylsulfinyl)phenyl)-2-methyl-tetrahydro-2H-pyran-4-carbonitrile] | 447 | 1160 | – |
| C[C@H]1C[C@@](C(N)=O)(c2cccc(Sc3ccc(-c4ccnn4C)c(F)c3)c2F)CCO1 [Example 31, (2S,4R)-4-(2-fluoro-3-(3-fluoro-4-(1-methyl-1H-pyrazol-5-yl)phenylthio)phenyl)-2-methyl-tetrahydro-2H-pyran-4-carboxamide] | 15.5 | 337 | – |
| Cn1nccc1-c1ccc(Sc2cc(F)cc(C3(C(N)=O)CCOCC3)c2F)cc1 [19(10), 4-(2,5-difluoro-3-{[4-(1-methyl-1H-pyrazol-5-yl)phenyl]-thio}phenyl)tetrahydro-2H-pyran-4-carboxamide] | 50.5 | 480 | – |
| C[C@H]1C[C@@](C(N)=O)(c2cc(F)cc(Sc3ccc(-c4ccnn4C)c(F)c3)c2)CCO1 [Example 32, (2S,4R)-4-(3-fluoro-5-(3-fluoro-4-(1-methyl-1H-pyrazol-5-yl)phenylthio)phenyl)-2-methyl-tetrahydro-2H-pyran-4-carboxamide] | 16.8 | 232 | – |
| CNC(=O)C1(c2cccc(Sc3ccc(C(=O)c4ccnn4C)c(Cl)c3)c2)CCOCC1 [Example 65, 4-[3-({3-chloro-4-[(1-methyl-1H-pyrazol-5-yl)carbonyl]phenyl}thio)phenyl]-N-methyltetrahydro-2H-pyran-4-carboxamide] | 81.3 | 1060 | – |
| Cn1nccc1C(=O)c1ccc(Sc2cccc(C3(C(N)=O)CCOCC3)c2)c(F)c1 [Example 67, 4-[3-({2-fluoro-4-[(1-methyl-1H-pyrazol-5-yl)carbonyl]phenyl}thio)phenyl]tetrahydro-2H-pyran-4-carboxamide] | 209 | 1210 | – |
| Cn1nccc1C(=O)c1ccc(Sc2cccc(C3(C#N)CCOCC3)c2)cc1 [Example 62, 4-[3-({4-[(1-methyl-1H-pyrazol-5-yl)carbonyl]phenyl}thio)phenyl]tetrahydro-2H-pyran-4-carbonitrile] | 2160 | 1490 | – |

The next lines start with results.

| IC50 (recombinant human 5-LOX) [nM] | IC50 [1] [nM] | Structure (SMILES) | inhibition at 3 mg/kg [2] [%] |
| --- | --- | --- | --- |
| ≥ 25000 | – | Cn1nccc1-c1ccc([S+]([O-])c2cccc(C3(C(N)=O)CCOCC3)c2)cc1 (stereo not drawn) [Example 50, 4-(3-{[4-(1-methyl-1H-pyrazol-5-yl)phenyl]sulfinyl}phenyl)tetrahydro-2H-pyran-4-carboxamide] | 12 |
| 816 | 890 | CCc1cn[nH]c1-c1ccc(Sc2cccc(C3(C(N)=O)CCOCC3)c2)cc1 [Example 59, 4-(3-{[4-(4-ethyl-1H-pyrazol-5-yl)phenyl]thio}phenyl)tetrahydro-2H-pyran-4-carboxamide] | – |
| 110 | 447 | Cc1cc(Sc2cccc(C3(C(N)=O)CCOCC3)c2)ccc1-c1ccnn1C [Example 14, 4-(3-{[3-methyl-4-(1-methyl-1H-pyrazol-5-yl)phenyl]thio}phenyl)tetrahydro-2H-pyran-4-carboxamide] | – |
| 188 | 466 | Cn1nccc1C(=O)c1ccc(Sc2cccc(C3(C(N)=O)CCOCC3)c2)cc1Cl [Example 36] | – |
| 14.8 | 208 | CC(C)n1nccc1-c1ccc(Sc2cccc(C3(C(N)=O)CCOCC3)c2)cc1 [Example 9] | – |
| 14 | 253 | CCn1nccc1-c1ccc(Sc2cccc(C3(C(N)=O)CCOCC3)c2)cc1 [Example 8, 4-(3-{[4-(1-ethyl-1H-pyrazol-5-yl)phenyl]thio}phenyl)tetrahydro-2H-pyran-4-carboxamide] | – |
| 102 | 179 | NC(=O)C1(c2cccc(Sc3ccc(-c4ccnn4C4CCCC4)cc3)c2)CCOCC1 [Example 3, 4-(3-{[4-(1-cyclopentyl-1H-pyrazol-5-yl)phenyl]thio}phenyl)tetrahydro-2H-pyran-4-carboxamide] | – |
| 313 | 769 | Cn1nccc1Cc1ccc(Sc2cccc(C3(C(N)=O)CCOCC3)c2)cc1 [Example 35, 4-[3-({4-[(1-methyl-1H-pyrazol-5-yl)methyl]phenyl}thio)phenyl]tetrahydro-2H-pyran-4-carboxamide] | – |
